“And” between values parts separate entries of the source, which are not always exact repeats. Identical values can stand only once. Like-named read-outs stand apart in the source and are kept apart here.
How the values were obtained:
[1] = target: T1, human erythrocyte plasma membrane Ca^2+ -ATPase (Homo sapiens, UniProt P23634); test: Ca^2+ -ATPase assay (microplate method), absence (-CaM) and presence (+CaM) of calmodulin (Table 1A); assay type: biochemical
T1 construct: Calmodulin-depleted erythrocyte membranes were prepared by continuous filtration through a hollow fibre; tissue New South Wales Red Cross Transfusion Service, Sydney; host or cells: human packed red blood cells (calmodulin-depleted erythrocyte membranes)
Protocol: Natural and synthetic compounds of formula (I) were tested for their ability to influence human erythrocyte plasma membrane Ca^2+ -ATPase. The enzyme Ca^2+ -ATPase in the human red blood cell plasma membrane has previously been studied and its stimulation by calmodulin and activation by lipids and proteolysis and its primary structure have been published (see Carafoli E (1991) Calcium pump of the plasma membrane, Physiological Reviews 71, 129-153.
(§1) Calmodulin-depleted erythrocyte membranes were prepared by continuous filtration through a hollow fibre, Ashahi plasma separator as described by W S Price, B D Roufogalis, P W Kuchel (1989), A simple and inexpensive method for preparing erythrocyte membranes by filtration through a hollow-filter system, Anal. Biochem., 179, 190-193. Packed cells were obtained from the New South Wales Red Cross Transfusion Service, Sydney. The whole preparation was carried out at 4° C. 1 unit of packed red cells was washed 3 times with isotonic buffer, containing 130 mM KCl, 20 mM Tris-HCl (pH 7.4), and the cells were collected by centrifugation at 4,000 RPM. The cells were haemolysed by the buffer containing 1 mM EDTA, 10 mM Tris-Hcl (pH 7.4), 0.5 mM PMSF (phenylmethyl sulfonyl fluoride). The haemolyzate mixture was passed through the hollow fibre system until the membrane appeared white, and then washed with 10 mM potassium Hepes (pH 7.4). The membranes were collected by centrifugation at 10,000 RPM for 20 min, the membranes were resuspended in storage buffer containing 130 mM KCl, 2 mM dithiothreitol, 0.5 mM MgCl2, 20 mM potassium-Hepes (pH 7.5). The membranes with protein concentration of 1.5-5.4 mg/ml were stored at -80° C. until required.
Erythrocyte membranes were incubated at 37° C. for one hour in a total volume of 60 μl of 65 mM KCl, 50 mM HEPES (pH=7.4), 5 mM MgCl2, 50 μM CaCl2, 0.1 mM EGTA and in absence and presence of calmodulin (0.3 μM). Test compounds were dissolved in dimethyl sulfoxide DMSO and 2 μl was added to the assay mixture prior the addition of ATP. The final concentration of DMSO in the assay mixture was 3%. The reaction was started by adding 2 mM ATP (pH=7.4). After 1 hour of incubation, colouring agent (180 μl) was added and incubated at 37° C. for 1/2 hrs. The phosphate liberated to the assay medium was determined spectrometrically using a microplate reader at 750 nm. The activity of the Mg^2+ -ATPase (assayed in the absence of added CaCl2) was subtracted from the total activity assayed in the presence of Ca^2+.

[2] = tested on: brine shrimp (Artemia salina Leach); test: Brine shrimp toxicity bioassay; assay type: in vivo; conditions: for LC50: Artemia salina, read-out: LC50 brine shrimp
Protocol: There are many applications of the assay including analysis of toxic substances, anaesthetics, morphine-like substances and cocarcinogenicity of phorbol esters.
6 (K Hostettman, ed.), Academ Press, London, 1-32. DMSO solutions of the substances to be tested were added directly to the vials containing the brine shrimp. As the concentration of DMSO that we wished to use was higher than the recommended 1% v/v testing of the toxicity of the DMSO was therefore necessary.
Brine shrimp toxicity was assayed, except for some minor modifications, according to the method of McLaughlin et al as reported in Brine Shrimp: A convenient general bioassay for active plant constituents, B N Meyer, N R Ferrigni, J E Putman, L B Jacobsen, D E Nhols and J L McLaughlin. […] J L McLaughlin. […] 6 (K Hostettman, ed.), Academ Press, London, 1-32. Ten shrimp were added transferred to each of the vials and the volume adjusted to 4.9 mL. Each dose was performed in triplicate, including the control. In quick succession, the appropriate volume of additional DMSO for each dose, required to achieve a final concentration of 2%, was added before the appropriate volume of test solution. The vials were gently mixed and the time noted. After 24 hours, the number of survivors were counted and % mortality was determined.
The LC50 values were expressed in both μM and μg/mL.

[3] = target: T1, human erythrocyte plasma membrane Ca^2+ -ATPase; test: Ca^2+ -ATPase assay (erythrocyte membranes; Table 1); assay type: biochemical; conditions: for inhibition at 100 µM: read-out: INHIBITION OF Ca^2+ -ATPase PERCENT (%)
Protocol: Natural and synthetic compounds of formula (I) were tested for their ability to influence human erythrocyte plasma membrane Ca^2+ -ATPase.
as §1, with “Packed” for “Calmodulin-depleted erythrocyte membranes were prepared by continuous filtration through a hollow fibre, Ashahi plasma separator as described by W S Price, B D Roufogalis, P W Kuchel (1989), A simple and inexpensive method for preparing erythrocyte membranes by filtration through a hollow-filter system, Anal. Biochem., 179, 190-193. Packed”
Erythrocyte membranes (0.071-0.098 mg/ml) were incubated at 37° C. for one hour in a total volume of 0.4 ml of 65 mM KCl, 20 mM potassium-Hepes, 5 mM MgCl2, 50 μM CaCl2, 0.1 μm calmodulin, 0.1 mM EGTA. The reaction was started by adding 2 mM ATP(pH 7.4). […] The activity of the Mg^2+ -ATPase (assayed in the absence of added CaCl2) was subtracted from the total activity assayed in the presence of Ca^2+. […] A concentrated solution of the test substances was added to the reaction medium before adding ATP.

[4] = IC50 (+CaM), presence of calmodulin (0.3 μM)
[5] = IC50 (-CaM), absence of calmodulin
[6] = absence of calmodulin, read-out: IC50 (-CaM)
[7] = presence of calmodulin (0.3 μM), read-out: IC50 (+CaM)
[8] = read-out: INHIBITION OF Ca^2+ -ATPase IC50

T1 sequence (P23634 1-1205 isoform P23634-6): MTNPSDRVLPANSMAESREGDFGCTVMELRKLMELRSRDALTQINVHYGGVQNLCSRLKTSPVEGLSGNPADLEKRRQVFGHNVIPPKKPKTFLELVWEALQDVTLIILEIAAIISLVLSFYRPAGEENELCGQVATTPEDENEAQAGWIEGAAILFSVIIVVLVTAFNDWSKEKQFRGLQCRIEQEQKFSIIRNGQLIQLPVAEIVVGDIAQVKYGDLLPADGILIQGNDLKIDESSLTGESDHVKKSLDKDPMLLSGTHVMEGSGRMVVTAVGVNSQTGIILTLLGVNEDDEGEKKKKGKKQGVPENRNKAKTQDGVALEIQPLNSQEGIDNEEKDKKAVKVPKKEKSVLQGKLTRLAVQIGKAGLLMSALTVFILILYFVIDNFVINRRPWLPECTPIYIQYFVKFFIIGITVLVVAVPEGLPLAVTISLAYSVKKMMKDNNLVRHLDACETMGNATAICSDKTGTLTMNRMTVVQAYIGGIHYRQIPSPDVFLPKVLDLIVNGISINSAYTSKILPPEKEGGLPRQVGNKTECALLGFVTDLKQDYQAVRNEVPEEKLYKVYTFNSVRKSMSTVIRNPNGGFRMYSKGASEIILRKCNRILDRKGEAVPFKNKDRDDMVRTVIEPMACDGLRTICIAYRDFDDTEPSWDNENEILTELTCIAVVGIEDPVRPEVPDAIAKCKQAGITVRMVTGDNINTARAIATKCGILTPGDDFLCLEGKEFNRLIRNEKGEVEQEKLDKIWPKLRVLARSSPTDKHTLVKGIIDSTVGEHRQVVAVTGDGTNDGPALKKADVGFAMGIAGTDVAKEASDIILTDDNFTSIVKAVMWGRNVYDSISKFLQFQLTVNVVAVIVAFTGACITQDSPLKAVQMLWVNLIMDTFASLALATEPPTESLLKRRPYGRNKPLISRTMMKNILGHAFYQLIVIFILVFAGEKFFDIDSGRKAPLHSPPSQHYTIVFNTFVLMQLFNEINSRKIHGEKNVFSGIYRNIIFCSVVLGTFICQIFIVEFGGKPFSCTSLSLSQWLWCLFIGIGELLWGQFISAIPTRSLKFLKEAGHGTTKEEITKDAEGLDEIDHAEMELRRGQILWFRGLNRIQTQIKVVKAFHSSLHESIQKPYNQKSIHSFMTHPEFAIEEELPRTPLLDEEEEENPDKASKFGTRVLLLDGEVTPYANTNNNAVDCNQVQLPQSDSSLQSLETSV
T1 sequence (P35613 140-385 partner limits assumed): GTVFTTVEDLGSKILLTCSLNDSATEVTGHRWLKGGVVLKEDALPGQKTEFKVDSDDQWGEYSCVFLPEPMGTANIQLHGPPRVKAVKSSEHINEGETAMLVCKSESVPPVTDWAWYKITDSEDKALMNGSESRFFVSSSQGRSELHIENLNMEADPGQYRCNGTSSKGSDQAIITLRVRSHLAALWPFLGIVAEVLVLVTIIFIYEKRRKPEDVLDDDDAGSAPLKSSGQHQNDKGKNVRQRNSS

Molecule | IC50 [1, 6] | IC50 [1, 7] | LC50 ([2]; 24 hours) | also measured
CCCCCCCCCc1cc([N+](=O)[O-])ccc1O [4-nitro-6-nonylphenol] |  |  |  | IC50 [1, 4]: 70 µM; IC50 [1, 5]: 80 µM
Cc1cccc(CCCCCCCCCCc2cccc(C)c2O)c1O [1,10-bis(2-hydroxy-3-methylphenyl)decane] | 50 µM | 55 µM | 5.8 µM and 2.1 µg/mL | 
Cc1ccc(O)c(CCCCCCCCCCc2cc(C)ccc2O)c1 [1,10-bis(2-hydroxy-5-methylphenyl)decane] | 22 µM | 20.5 µM |  | 
Oc1ccc(CCCCCCCCc2ccc(O)cc2O)c(O)c1 [1,8-bis(2,4-dihydroxyphenyl)octane] | 50 µM | 48 µM | 74 µM and 24 µg/mL | 
Cc1cc(CCCCCCCCCCc2ccc(O)c(C)c2)ccc1O [1,10-bis(4-hydroxy-3-methylphenyl)decane] | 100 µM | 94 µM | 4.2 µM and 1.5 µg/mL | 
Oc1ccccc1CCCCCCCCc1ccccc1O [1,8-bis(2-hydroxyphenyl)octane] | 24 µM | 24 µM | 3 µM and 0.89 µg/mL | 
Oc1cccc(CCCCCCCCCCc2cccc(O)c2)c1 [1,10-bis(3-hydroxyphenyl)decane] | 30 µM | 32 µM | 3 µM and 0.98 µg/mL | 
CCCCCCCCCc1cc(C)ccc1O [4-methyl-6-nonylphenol] |  |  |  | IC50 [1, 4]: 75 µM; IC50 [1, 5]: 80 µM
CCCCCCCCCC(c1ccccc1O)c1ccccc1O [1,1-bis(2-hydroxyphenyl)decane] | 74 µM | 68 µM | 14 µM and 4.6 µg/mL | 
Cc1c(O)ccc(CCCCCCCCCCc2ccc(O)c(C)c2O)c1O [1,10-bis(2,4-dihydroxy-3-methylphenyl)decane] | 100 µM | 100 µM | > 25 µM and > 9.7 µg/mL | 
Oc1ccc(CCCCCCCCCCc2ccc(O)cc2O)c(O)c1 [1,10-bis(2,4-dihydroxyphenyl)decane] | 10 µM | 16 µM | 37 µM and 13 µg/mL | Ca^2+ -ATPase inhibitory activity (in words) [1]: most potent inhibitors of plasma Ca^2+ -ATPase among the synthesised substances; toxicity to brine shrimp (in words) ([2]; 24 hours): relatively low toxicity
Oc1ccccc1CCCCCCCCCc1ccccc1O [1,9-bis(2-hydroxyphenyl)nonane] | 13.5 µM | 14 µM |  | 
CCCCCCCCCc1cc([N+](=O)[O-])cc(Br)c1O [2-bromo-4-nitro-6-nonylphenol] |  |  |  | IC50 [1, 4]: 70 µM
Cc1ccc(CCCCCCCCCCc2ccc(C)c(O)c2)cc1O [1,10-bis(3-hydroxy-4-methylphenyl)decane] | 51 µM | 48 µM | 11 µM and 3.9 µg/mL | 
Oc1ccc(C2CCCCC2)cc1 [4-cyclohexylphenol] |  |  |  | IC50 [3]: 271 µM; inhibition at 100 µM ([3]; at 100 μM): 16%; LC50 ([2]; 24 h): > 25 µM and > 4.4 µg/mL
CCCCCCCCCCc1cc(O)cc(O)c1 [5-decylresorcinol] |  |  | 54 µM and 15 µg/mL | inhibition at 100 µM ([3]; at 100 μM): 30%; IC50 [3, 8]: 135 µM
Cc1ccc(CCCCCCCCCCc2ccc(C)cc2O)c(O)c1 [1,10-bis(2-hydroxy-4-methylphenyl)decane] | 29 µM | 29 µM | 14 µM and 5 µg/mL | toxicity to brine shrimp (in words) ([2]; 24 hours): reduced toxicity
CCCCCCCCCCc1c(Br)c(O)c(Br)c(O)c1C(=O)OCC [ethyl 3,5-dibromo-2,4-dihydroxy-6-decylbenzoate] |  |  | 780 nM and 0.37 µg/mL | inhibition at 100 µM ([3]; at 100 μM): 73%; IC50 [3, 8]: 69 µM
CCCCCCCCCc1ccc(C)cc1O [3-methyl-6-nonylphenol] |  |  |  | IC50 [1, 4]: 60 µM; IC50 [1, 5]: 52 µM
CCCCCCCCCc1cc(Br)cc([N+](=O)[O-])c1O [4-bromo-2-nitro-6-nonylphenol] |  |  |  | IC50 [1, 4]: 65.5 µM
Oc1ccc(CCCCCCCCCCCCCCc2ccccc2O)cc1 [1-(2-hydroxyphenyl)-14-(4-hydroxyphenyl)tetradecane] |  |  | 3.7 µM and 1.4 µg/mL | inhibition at 100 µM ([3]; at 100 μM): 60%; IC50 [3, 8]: 81 µM
CCCCCCCCc1ccccc1O [2-octylphenol] |  |  |  | IC50 [3]: 32 µM; inhibition at 100 µM [3]: 100%; LC50 ([2]; 24 h): 1.5 µM and 0.31 µg/mL
CCCCCCc1ccc(O)cc1O [4-hexylresorcinol, reference compound] |  |  | 62 µM and 12 µg/mL | inhibition at 100 µM ([3]; at 100 μM): 17%; IC50 [3, 8]: 259 µM
Oc1ccccc1C1CCCCC1 [2-cyclohexylphenol] |  |  | > 25 µM and > 4.4 µg/mL | IC50 [3]: 186 µM; inhibition at 100 µM [3]: 28%
CCCCCCCCCc1cc(Br)ccc1O [4-bromo-6-nonylphenol] |  |  |  | IC50 [1, 4]: 55 µM; IC50 [1, 5]: 52 µM
CCCCCCCCCc1c(Br)c(O)c(Br)c(O)c1C(=O)OCC [ethyl 3,5-dibromo-2,4-dihydroxy-6-nonylbenzoate] |  |  | 780 nM and 0.36 µg/mL | inhibition at 100 µM ([3]; at 100 μM): 95%; IC50 [3, 8]: 44 µM

More lines, main results first:

IC50 [1, 6] | IC50 [1, 7] | Molecule | LC50 ([2]; 24 hours) | also measured
25 µM | 21.7 µM | Oc1ccc(CCCCCCCCCCCc2ccc(O)cc2O)c(O)c1 [1,11-bis(2,4-dihydroxyphenyl)undecane] | > 25 µM and > 9.3 µg/mL | 
45.3 µM |  | C=C(C)C(CC=C(C)C)Cc1c(OC)cc(O)c2c1OC(c1c(O)cccc1O)CC2=O (stereo not shown) [5,2',6'-trihydroxy-8-lavandulyl-7-methoxyflavanone] |  | 
20 µM |  | C=C(C)C(CC=C(C)C)Cc1c(O)cc(O)c2c1OC(c1c(O)cccc1O)CC2=O (stereo not shown) [5,7,2',6'-tetrahydroxy-8-lavandulylflavanone] | > 100 µM and > 42 µg/mL | 
400 µM | 400 µM | 4-bromo-6-nonylresorcinol |  | 
400 µM | 400 µM | 2-bromo-6-nonylresorcinol |  | 
26.5 µM |  | C=C(C)C(CC=C(C)C)Cc1c(O)cc(O)c2c1OC(c1ccccc1O)CC2=O (stereo not shown) [5,7,6'-trihydroxy-8-lavandulylflavanone] |  | 
